Reference: patent publication US5081284A, “Proteinase inhibitor” (Suntory Limited, priority 1989, dated 1992)
Read-outs that look alike come from different tables or passages of the source. Peptide text beside a SMILES is read from it. * marks the point of attachment. Cbz = O=C(OCc1ccccc1)*

How the values were obtained:
cathepsin B = cathepsin B (Bos taurus, UniProt P07688); assay: Anti-cathepsin activity (cathepsin B, benzyloxycarbonyl-L-lysine-p-nitrophenyl ester substrate); type: biochemical, bovine; settings: Table 8 (Example 29); pH 5.1, 30° C., from bovine spleen; read-out: Inhibitory activity toward cathepsin B, IC50
Experimental: A mixture of a test compound of the present invention and an acetate buffer solution (25 mM, pH=5.1, with 1 mM EDTA, 3.15 ml) containing a substrate (benzyloxycarbonyl-L-lysine-p-nitrophenyl ester, 0.114 mg) was preincubated at 30° C. for 1 minute. To the mixture, a solution (0.05 ml) of cathepsin B (derived from bovine spleen; product of Sigma; 0.05 units) in the acetate buffer was added to start the reaction. Immediately after the start of reaction, the change in absorbance at 326 nm was measured and the inhibitory activity of the test compound was determined by comparison with the control solution.

calpain I = biological target: T1, calpain I (Homo sapiens, UniProt P07384); assay: Anti-calpain activity, calpain I (casein hydrolysis, Ross-Schatz method); type: biochemical
T1 sequence (P07384 1-714): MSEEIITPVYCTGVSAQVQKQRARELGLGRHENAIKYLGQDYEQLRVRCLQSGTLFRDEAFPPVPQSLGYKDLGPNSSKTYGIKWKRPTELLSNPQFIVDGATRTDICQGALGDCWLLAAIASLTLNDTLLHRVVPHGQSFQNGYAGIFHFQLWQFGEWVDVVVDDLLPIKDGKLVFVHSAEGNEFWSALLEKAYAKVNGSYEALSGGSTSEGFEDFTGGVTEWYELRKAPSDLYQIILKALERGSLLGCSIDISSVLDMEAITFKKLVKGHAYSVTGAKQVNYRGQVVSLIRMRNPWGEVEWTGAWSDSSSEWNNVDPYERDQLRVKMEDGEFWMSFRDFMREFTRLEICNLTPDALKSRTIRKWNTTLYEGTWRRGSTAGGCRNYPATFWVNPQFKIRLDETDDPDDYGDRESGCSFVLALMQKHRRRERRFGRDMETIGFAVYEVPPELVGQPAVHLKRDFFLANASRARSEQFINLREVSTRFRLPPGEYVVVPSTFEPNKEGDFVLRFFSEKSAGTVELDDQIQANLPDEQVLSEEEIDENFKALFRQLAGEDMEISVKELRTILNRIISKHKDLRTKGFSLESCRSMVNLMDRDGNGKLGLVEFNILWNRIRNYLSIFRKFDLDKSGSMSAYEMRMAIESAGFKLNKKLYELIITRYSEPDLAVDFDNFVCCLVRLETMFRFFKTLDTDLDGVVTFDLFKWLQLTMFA
T1 sequence (P04632 1-268 partner): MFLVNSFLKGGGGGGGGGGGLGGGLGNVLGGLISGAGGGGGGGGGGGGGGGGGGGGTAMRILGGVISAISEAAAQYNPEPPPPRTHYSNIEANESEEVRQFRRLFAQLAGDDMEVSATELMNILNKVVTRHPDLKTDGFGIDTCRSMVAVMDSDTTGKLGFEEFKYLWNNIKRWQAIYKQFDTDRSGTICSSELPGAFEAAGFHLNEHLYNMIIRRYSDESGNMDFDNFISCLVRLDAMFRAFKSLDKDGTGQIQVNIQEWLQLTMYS

calpain II = biological target: T2, calpain II (Homo sapiens, UniProt P17655); assay: Anti-calpain activity, calpain II (casein hydrolysis, Ross-Schatz method); type: biochemical
T2 sequence (P17655 1-700): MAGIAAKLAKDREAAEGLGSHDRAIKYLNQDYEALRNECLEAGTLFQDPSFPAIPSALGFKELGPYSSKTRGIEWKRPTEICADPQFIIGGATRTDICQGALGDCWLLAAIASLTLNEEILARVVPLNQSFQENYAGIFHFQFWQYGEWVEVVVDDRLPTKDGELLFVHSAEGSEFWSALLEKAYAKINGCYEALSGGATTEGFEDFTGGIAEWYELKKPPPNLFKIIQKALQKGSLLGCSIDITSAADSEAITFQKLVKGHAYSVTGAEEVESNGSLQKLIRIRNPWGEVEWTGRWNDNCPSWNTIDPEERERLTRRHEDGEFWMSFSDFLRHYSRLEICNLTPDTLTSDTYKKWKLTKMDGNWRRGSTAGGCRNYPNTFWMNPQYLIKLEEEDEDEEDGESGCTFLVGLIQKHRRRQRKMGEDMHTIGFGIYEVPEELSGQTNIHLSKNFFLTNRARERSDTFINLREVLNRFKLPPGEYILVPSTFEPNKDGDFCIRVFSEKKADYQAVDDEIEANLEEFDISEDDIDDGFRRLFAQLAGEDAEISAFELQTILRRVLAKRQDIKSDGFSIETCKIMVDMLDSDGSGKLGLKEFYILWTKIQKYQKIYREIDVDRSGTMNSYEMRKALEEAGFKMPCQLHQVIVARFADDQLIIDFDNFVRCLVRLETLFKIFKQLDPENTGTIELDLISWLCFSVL
T2 sequence (P04632 1-268 partner): T1 sequence (P04632 1-268 partner)

papain = biological target: T3, papain (Carica papaya, UniProt P00784); assay: Anti-papain activity (casein hydrolysis, Lowry-Folin method); type: biochemical
T3 sequence (P00784 134-345): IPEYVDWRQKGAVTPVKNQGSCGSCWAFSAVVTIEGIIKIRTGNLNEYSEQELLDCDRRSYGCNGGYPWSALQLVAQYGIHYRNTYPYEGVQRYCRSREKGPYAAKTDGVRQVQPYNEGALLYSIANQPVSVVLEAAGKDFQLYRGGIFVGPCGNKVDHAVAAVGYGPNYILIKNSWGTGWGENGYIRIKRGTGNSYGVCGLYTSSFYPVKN
Experimental: (§1) A mixture of a test compound of the present invention, papain (0.015 units) and a citrate buffer solution (20 mM, pH=6.2,1 ml) containing EDTA (0.88 mg) was preincubated at 30° C. for 5 minutes and a substrate solution (1 ml) was added to start the reaction. The substrate was a 1% solution of casein in the citrate buffer. The reaction was performed at 30° C. for 20 minutes. The reaction was quenched by adding 6.5% trichloroacetic acid (3 ml) to the reaction solution. The amount of casein that had been hydrolyzed enzymatically in the trichloroacetic acid soluble fraction was measured by the Lowry-Folin method and the inhibitory activity of the test compound was determined by comparison with the control solution.
as §1, with “pH=6.2, 1” for “pH=6.2,1”

[1] = Table 6 (Example 29), pH 7.5, 30° C., 30 minutes, casein, read-out: Inhibitory activity toward calpain I, IC50
[2] = Table 4 (Example 28), pH 7.5, 30° C., 30 minutes, casein, read-out: Inhibitory activity toward calpain II, IC50
[3] = Table 2 (Example 28), pH 6.2, 30° C., 20 minutes, casein, read-out: Inhibitory activity toward papain, IC50
[4] = Table 3 (Example 28), pH 7.5, 30° C., 30 minutes, casein, read-out: Inhibitory activity toward calpain I, IC50
[5] = Table 5 (Example 29), pH 6.2, 30° C., 20 minutes, casein, read-out: Inhibitory activity toward papain, IC50

Row | Compound | IC50 (cathepsin B) [nM] | IC50 (calpain I; [1]) [nM] | IC50 (calpain II; [2]) [nM] | IC50 (papain; [3]) [nM] | IC50 (calpain I; [4]) [nM] | further results
1 | CCCCCC(=O)N[C@@H](CC(C)C)C(=O)N[C@H](C=O)CCCC [Example 2, N-caproyl-L-leucyl-L-norleucinal] | 9200 | – | – | – | – | –
2 | CCCCCCCC(=O)N[C@@H](CC(C)C)C(=O)N[C@H](C=O)CCCC [Example 1, N-caprylyl-L-leucyl-L-norleucinal] | 110 | 160 | – | – | – | –
3 | CC(C)C[C@H](NC(=O)CCCc1ccccc1)C(=O)N[C@H](C=O)Cc1ccccc1 [Example 22, N-(4-phenyl)butanoyl-L-leucyl-L-phenylalaninal] | – | – | 29 | 18 | – | –
4 | CCCC[C@@H](C=O)NC(=O)[C@H](CC(C)C)NC(=O)OCc1ccccc1 [Example 20, N-benzyloxycarbonyl-L-leucyl-L-norleucinal] | – | 710 | 34 | – | 52 | IC50 (calpain II; Table 7 (Example 29), pH 7.5, 30° C., 30 minutes, casein, read-out: Inhibitory activity toward calpain II, IC50): 130 nM; IC50 (papain; [5]): 310 nM
5 | CC(C)C[C@H](NC(=O)OCc1ccccc1)C(=O)N[C@H](C=O)Cc1ccccc1 [Example 19, N-benzyloxycarbonyl-L-leucyl-L-phenylalaninal] (Cbz-Leu-Phe-aldehyde) | – | – | 35 | – | 100 | –
6 | CSCC[C@@H](C=O)NC(=O)[C@H](CC(C)C)NC(=O)OCc1ccccc1 [Example 21, N-benzyloxycarbonyl-L-leucyl-L-methioninal] (Cbz-Leu-Met-aldehyde) | – | – | 25 | – | – | –
7 | CC(=O)N[C@@H](CC(C)C)C(=O)N[C@@H](CC(C)C)C(=O)N[C@H](C=O)CCCNC(=N)N [Leupeptin, reference compound] | – | – | – | 53 | – | IC50 (calpain I): 210 nM; IC50 (calpain II): 940 nM
8 | CCCC[C@H](NC(=O)[C@H](CC(C)C)NC(=O)CCCc1ccccc1)C(=O)CCl [Example 27, N-(4-phenylbutanoyl)-L-leucyl-L-norleucyl chloromethyl] | – | – | 140 | 25 | 71 | –
9 | CCCC[C@@H](C=O)NC(=O)[C@H](CC(C)C)NC(C)=CC(=O)c1ccccc1 [Example 16, N-(2-benzoyl-1-methylvinyl)-L-leucyl-L-norleucinal] | 7000 | 400 | – | – | – | IC50 (papain; [5]): 96 nM
10 | CCCC[C@@H](C=O)NC(=O)[C@H](CC(C)C)NC(=O)OCC[Si](C)(C)C [Example 11, N-(2-trimethylsilylethyloxycarbonyl)-L-leucyl-L-norleucinal] | 960 | – | – | – | – | –
11 | CCCC[C@@H](C=O)NC(=O)[C@H](CC(C)C)NC(c1ccccc1)(c1ccccc1)c1ccccc1 [Example 15, N-triphenylmethyl-L-leucyl-L-norleucinal] | 32000 | – | – | – | – | –
12 | CCCC[C@@H](C=O)NC(=O)[C@H](CCCC)NC(=O)OCc1ccccc1 [Example 18, N-benzyloxycarbonyl-L-norleucyl-L-norleucinal] | 110 | 700 | – | – | – | –
13 | CCCC[C@@H](C=O)NC(=O)[C@H](CC(C)C)NC(=O)OC12CC3CC(CC(C3)C1)C2 [Example 5, N-adamantyloxycarbonyl-L-leucyl-L-norleucinal] | 180 | 150 | – | – | – | IC50 (papain): 210 nM
14 | CCCC[C@@H](C=O)NC(=O)[C@H](CC(C)C)NS(=O)(=O)c1ccc(C)cc1 [Example 12, N-(p-toluenesulfonyl)-L-leucyl-L-norleucinal] | 1200 | 110 | – | – | – | IC50 (papain; [5]): 180 nM
15 | CSCC[C@@H](C=O)NC(=O)[C@H](CC(C)C)NC(=O)CCCc1ccccc1 [Example 24, N-(4-phenyl)butanoyl-L-leucyl-L-methioninal] | – | – | 71 | 19 | 38 | –
16 | CCCC[C@@H](C=O)NC(=O)[C@H](CC(C)C)N1C(=O)c2ccccc2C1=O [Example 17, N-phthaloyl-L-leucyl-L-norleucinal] | 100000 | – | – | – | – | –
17 | CCCC[C@H](NC(=O)[C@H](CC(C)C)NC(=O)OCc1ccccc1)C(=O)CCl [Example 26, N-benzyloxycarbonyl-L-leucine 1s-chloroacetyl-n-pentylamide] | – | – | 120 | 12 | 150 | –
18 | CCCC[C@@H](C=O)NC(=O)[C@H](CC(C)C)NC(=O)CCCc1ccccc1 [Example 23, N-(4-phenylbutanoyl)-L-leucyl-L-norleucinal] | – | – | 320 | 15 | 40 | –
